Measurements published in ChEMBL document CHEMBL1144906, “Characterization of the 5-HT(7) receptor. Determination of the pharmacophore for 5-HT(7) receptor agonism and CoMFA-based modeling of the agonist binding site” (J Med Chem, 2003).
Calls of active or inactive are those of the source. The calls are words filed in the database; no cut-off is given here.

Assays:
[1] = molecular target: 5-hydroxytryptamine receptor 7 (Rattus norvegicus) (UniProt P32305); experiment: Agonistic activity against rat 5-HT7 adenyl cyclase expressed by HEK293 cells; format: functional, cell-based
Chain of 5-hydroxytryptamine receptor 7 (Rattus norvegicus) (P32305 whole entry): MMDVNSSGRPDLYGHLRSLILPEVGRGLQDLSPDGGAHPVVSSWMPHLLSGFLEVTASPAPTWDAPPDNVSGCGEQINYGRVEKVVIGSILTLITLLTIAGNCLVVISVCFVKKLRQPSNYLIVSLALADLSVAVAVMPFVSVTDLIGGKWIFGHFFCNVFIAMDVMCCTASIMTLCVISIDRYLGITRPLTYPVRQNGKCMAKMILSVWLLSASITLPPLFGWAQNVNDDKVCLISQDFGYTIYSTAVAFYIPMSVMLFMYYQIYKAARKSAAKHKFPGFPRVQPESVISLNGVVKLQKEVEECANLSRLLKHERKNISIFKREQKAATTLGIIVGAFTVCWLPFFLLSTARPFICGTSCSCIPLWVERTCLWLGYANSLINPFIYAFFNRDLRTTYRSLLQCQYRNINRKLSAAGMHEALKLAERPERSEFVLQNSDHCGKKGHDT

[2] = molecular target: 5-hydroxytryptamine receptor 7 (Rattus norvegicus, UniProt P32305); experiment: Binding affinity at rat 5-hydroxytryptamine 7 receptor.
Chain of 5-hydroxytryptamine receptor 7 (P32305 whole entry): as above

[3] = molecular target: 5-hydroxytryptamine receptor 7 (Rattus norvegicus) (UniProt P32305); experiment: Agonistic activity against rat 5-HT7 adenyl cyclase expressed in HEK293 cells; Active; format: functional, cell-based
[4] = molecular target: 5-hydroxytryptamine receptor 7 (Rattus norvegicus) (UniProt P32305); settings: HEK293

SMILES	Increase [1]	Ki [2]	Increase [3]	Increase [4]
COc1cccc2c1C[C@H](N)CC2	73%	123 nM		
COc1ccc2[nH]cc(CCN(C)C)c2c1 [MEBUFOTENIN]	92%	39.8 nM		
NCCc1c[nH]c2ccc(C(N)=O)cc12	100%			
CCN(CC)[C@@H]1CCc2cccc(OC)c2C1	73%	87.1 nM		
c1ccc2c(N3CCNCC3)cccc2c1			Active	
CN(C)CCc1c[nH]c2ccc(O)cc12 [BUFOTENINE]		7.94 nM	Active	
COc1ccc2c(c1)CC[C@@H](N)C2	58%	1580 nM		
CN(C)[C@H]1CCc2c(cccc2-c2cccc3ccccc23)C1		0.251 nM	Active	
COc1ccc2[nH]cc(CCN3CCCC3)c2c1	39%	631 nM		
COc1ccccc1N1CCNCC1			Active	
COc1ccc2cccc(N3CCNCC3)c2c1	25%	20.4 nM		
NCCc1c[nH]c2ccc(O)cc12				Active
Cc1[nH]c(C)c(-c2cccc3c2CC[C@H](N(C)C)C3)c1C		0.832 nM	Active	
CCCN(CCC)[C@H]1CCc2cccc(OC)c2C1	99%	339 nM		
CCCN(CCC)[C@@H]1CCc2cccc(OC)c2C1	92%	33.9 nM		
COc1ccc2[nH]cc(CCN)c2c1			Active	
Cc1c(NC2=NCCN2)cccc1-c1ccccc1			Active	
CCCN(CCC)[C@@H]1CCc2cccc(O)c2C1		45.7 nM	Active	
COc1ccc2[nH]c(C)c(CCN(C)C)c2c1	17%	1120 nM		
CCN(CC)C(=O)[C@@H]1C=C2c3cccc4[nH]cc(c34)C[C@H]2N(C)C1			Active	
